Laboratory results from patent publication US9034309B2, “Biocidal polymers” (Wisconsin Alumni Research Foundation, priority 2003, dated 2015).
In brackets after ≈: the same amount, converted by molar mass. Where a SMILES comes first, the peptide text is derived from it.

How the values were obtained:
[1] = system: E. faecium A436 (vancomycin-resistant); assay: microbe, parasite or virus in culture; format: cell-based, Enterococcus faecium; conditions: for MIC E. faecium A436: Table 3, unit not given (Table 1: μg/mL), median of at least three experiments
Protocol: (§1) Minimal Inhibitory Concentration (MIC): Stock solutions of polymers (5.00 μL at 2 mg/mL, prepared as described above), commercial synthetic (Ala^8,3,18)-1-magainin-2-amide (Sigma, dissolved in Millipore water to 1 mg/mL, 10.0 μL, as positive control), or solvent blank (5.00 μL) were diluted into brain-heart infusion (BHI) broth in row A of 96-well sterile assay plates (B-D Falcon 35-3075, Fisher Scientific) and seven serial twofold dilutions were performed to give 50 μL of peptide solution (at double the final assay concentration) in each well. Bacterial strains (Escherichia coli JM1O9, Bacillus subtilis BR151,^24 Staphylococcus aureus 5332 (a clinical MRSA isolate from the Weisblum laboratory strain collection), and Enterococcus faecium A436^25) were grown on 2% bacteriological agar in BHI medium. Cells from these cultures were suspended in BHI broth at a concentration of approximately 10^6 colony-forming units (CFU)/mL, and 50 μL of cell suspension was added to each well to give a total of 100 μL in each well.
(§2) Plates were then incubated at 37° C. for 6 h. Bacterial growth gives rise to turbidity and light scattering, which was detected by measuring 0D650 using a Molecular Devices Emax microplate reader connected to a Windows computer running SOFTmax v.2.34. OD650 values from two simultaneous experiments were averaged. […] If an even number of experiments was performed and the two median values were not identical, the geometric mean is reported as the MIC.

[2] = system: E. Coli, B. subtilis, methicillin-resistant S. aureus, vancomycin-resistant E. faecium; assay: BHI growth inhibition assay, statements over all four strains; format: cell-based; conditions: BHI broth, up to 50 μg/mL
Protocol: as §1
Plates were then incubated at 37° C. for 6 h. Bacterial growth gives rise to turbidity and light scattering, which was detected by measuring 0D650 using a Molecular Devices Emax microplate reader connected to a Windows computer running SOFTmax v.2.34. OD650 values from two simultaneous experiments were averaged. […]

B. subtilis BR151 = assay: microbe, parasite or virus in culture; format: cell-based, Bacillus subtilis; conditions: for MIC B. subtilis BR151: Table 3, unit not given (Table 1: μg/mL), median of at least three experiments
Protocol: as §1, §2

E. coli JM109 [3] = assay: microbe, parasite or virus in culture; format: cell-based, Escherichia coli; conditions: for MIC E. coli JM109: Table 3, unit not given (Table 1: μg/mL), median of at least three experiments
Protocol: as §1, §2

[4] = system: S. aureus 5332 (clinical MRSA isolate); assay: microbe, parasite or virus in culture; format: cell-based, Staphylococcus aureus; conditions: for MIC S. aureus 5332: Table 3, unit not given (Table 1: μg/mL), median of at least three experiments
Protocol: as §1, §2

E. coli JM109 [5] = assay: Minimal Bactericidal Concentration (MBC); format: cell-based, Escherichia coli; conditions: Table 2, unit not given; lowest well concentration showing no colonies (>99% killing); plates incubated 4 d
Protocol: Minimal Bactericidal Concentration (MBC): To determine cell viability, 10 μL from each of the MIC, 2×MIC, and 4×MIC wells (up to the maximum concentration of […]) was diluted 100-fold. Of this, 100 μL (containing at most 5×10^2 CFU) was plated on 2% bacteriological agar in BHI medium and incubated at 37° C. overnight (for B. subtilis) or for 4 d (for E. coli, because no growth was seen after 10 h; colonies appeared on some plates after extended incubation). The absence of colonies was considered indicative of >99% bacterial killing, and the lowest assay well concentration showing no colonies is reported as the MBC.

Structure (SMILES) | MIC ([1]; Enterococcus faecium, BHI broth, 37° C., 6 h, tested up to 50 μg/mL, conservative estimates, read-out: Minimum Inhibitory Concentrations (MIC's) E. faecium A436) [µg/mL] | MIC E. faecium A436 ([1]; BHI broth, 37° C., 6 h) [µg/mL] | growth inhibition / inhibitory activity (in words) [2] | MIC (B. subtilis BR151; Bacillus subtilis, BR151, BHI broth, 37° C., 6 h, tested up to 50 μg/mL, conservative estimates, read-out: Minimum Inhibitory Concentrations (MIC's) B. subtilis BR151) [µg/mL] | MIC B. subtilis BR151 (B. subtilis BR151; BHI broth, 37° C., 6 h) [µg/mL] | MIC (E. coli JM109 [3]; Escherichia coli, JM109, BHI broth, 37° C., 6 h, tested up to 50 μg/mL, conservative estimates, read-out: Minimum Inhibitory Concentrations (MIC's) E. coli JM109) [µg/mL] | MIC E. coli JM109 (E. coli JM109 [3]; BHI broth, 37° C., 6 h) [µg/mL] | MIC ([4]; Staphylococcus aureus, MRSA, BHI broth, 37° C., 6 h, tested up to 50 μg/mL, conservative estimates, read-out: Minimum Inhibitory Concentrations (MIC's) S. aureus 5332) [µg/mL] | MIC S. aureus 5332 ([4]; BHI broth, 37° C., 6 h) [µg/mL] | Minimum Inhibitory Concentrations (MIC's) E. faecium A436 ([1]; A436 (vancomycin-resistant, 6 h)) [µg/mL] | Minimum Inhibitory Concentrations (MIC's) B. subtilis BR151 (B. subtilis BR151; BR151, 6 h) [µg/mL] | Minimum Inhibitory Concentrations (MIC's) E. coli JM109 (E. coli JM109 [3]; JM109, 6 h) [µg/mL] | Minimum Inhibitory Concentrations (MIC's) S. aureus 5332 ([4]; 5332 (clinical isolate, 6 h)) [µg/mL] | MBC E. coli JM109 (E. coli JM109 [5])
C=Cc1ccc(CN(C)C)cc1 [(1) (monomer), 4-(dimethylaminomethyl)-styrene] | > 50 | > 50 | no growth inhibition | > 50 | > 50 | > 50 | > 50 | > 50 | > 50 |  |  |  |  | 
CC[C@H](C)[C@H](NC(=O)CN)C(=O)NCC(=O)N[C@@H](CCCCN)C(=O)N[C@@H](Cc1ccccc1)C(=O)N[C@@H](CC(C)C)C(=O)N[C@@H](Cc1c[nH]cn1)C(=O)N[C@@H](C)C(=O)N[C@@H](C)C(=O)N[C@@H](CCCCN)C(=O)N[C@@H](CCCCN)C(=O)N[C@@H](Cc1ccccc1)C(=O)N[C@@H](C)C(=O)N[C@@H](CCCCN)C(=O)N[C@@H](C)C(=O)N[C@@H](Cc1ccccc1)C(=O)N[C@H](C(=O)N[C@@H](C)C(=O)N[C@@H](CCC(=O)O)C(=O)N[C@H](C(=O)N[C@@H](CCSC)C(=O)N[C@@H](CC(N)=O)C(=O)N[C@@H](CO)C(N)=O)[C@@H](C)CC)C(C)C [(Ala^8,3,18)-magainin-2-amide] (H-GIGKFLHAAKKFAKAFVAEIMNS-NH2; N-terminus assumed) |  | 3.2 (≈ 1.29 µM) |  |  | 6.3 (≈ 2.54 µM) |  | 12.5 (≈ 5.04 µM) |  | 12.5 (≈ 5.04 µM) | 3.2 | 6.3 | 12.5 | 12.5 | 25
